Measured values taken from patent publication US9828630B2, “Methods of enhancing genetic diagnosis” (BioLamina AB, priority 2011, dated 2017).
“Also recorded” adds a separate entry of the source.

Legend:
human ES cells [1] = test: Cell survival assay, 24 hours (1 day) after plating from single cell suspension; type: cell-based; settings: for survival / attachment of dissociated hES cells 24 hours (one day) after plating: single cell suspension, O3 medium, no ROCK inhibitor
Protocol: (§1) The assay was performed as described (Extracellular Matrix Protocols, 2000). Briefly, 96-well plates were coated by extracellular matrix proteins as described above and blocked by O3 medium containing bovine serum albumin. The ES cells were plated at a cell density of 600 cell/mm^2 upon extracellular matrix-coated plates and were left to adhere for either 1 hour or 1 day at the cell incubator. Non-adherent cells were washed away, and adherent cells were fixed for 20 min by 5% glutaraldehyde, stained by 0.1% Crystal Violet.
(§2) The survival assay was performed as described for the cell adhesion assay above, except that the cells were left in the cell incubator for 24 hours. For inhibition of survival assay, the cells were kept in a medium with function blocking antibodies at the concentrations recommended by the manufacturer or pathway inhibitors at concentrations indicated in the text for 30 minutes, and then plated on the coated dishes. All the experiments were performed in quadruplicate.
Pluripotent hES cells express α1, α5, β1, β2 and γ1 laminin chains. To compare the adhesion and clonal survival of hES cells plated from single cell suspension to different coating substrata, hES cells growing as monolayers on LN-511 or as clusters on a feeder layer were trypsinized into single cell suspension in O3 medium and plated on cell culture dishes coated with Matrigel, LN-111, LN-511, LN-521 or a mixture of LN-511 and LN-521, in the absence or presence of a ROCK inhibitor (Y-27632) and analyzed after 24 hours.

human ES cells on LN-521 = test: Inhibition of survival assay on LN-521 (function blocking antibodies, pathway inhibitors); type: cell-based; settings: medium contained bFGF, FIG. 16
Protocol: as §2

Akt and MEK1 = test: Western blot of inhibitor treated and control cells one hour after plating on LN-521; type: cell-based, human; settings: one hour after plating on LN-521, FIG. 18 and 19
Protocol: HS 181 cells were trypsinized into single cell suspension as described above. For inhibition experiments, the cells were kept in O3 medium with blocking antibodies or pathway inhibitors for 30 minutes and then […] cells were plated on 35 mm dishes precoated with the appropriate matrix coating. For other experiments, same number of cells was plated directly after trypsinization. In all cases the cells were allowed to spread for 1 hour at 37° C., 5% CO2. After two washings in ice-cold PBS, the plates with cells were snap frozen in liquid nitrogen and stored at -80° C. To prepare samples for western blots and ELISA, the plates were slowly thawed and kept on ice with 100-150 μl of lysis buffer (50 mM Tris-HCl, pH7.5, 150 mM NaCl, 0.5% deoxycholate, 0.5% SDS, 1% Triton X-100, 1% Igepal, CompleteTM (Roche) and Phospho-StopTM (Roche)) on top. Then, the cells were scraped, pipetted and sheared through a 27 G 3⁄4'' needle. After that, the cell pellets were clarified by centrifugation at 16,100 rcf for 15 minutes at 4° C. For western blots, 4-12% gradient gels were used for SDS electrophoresis and the proteins were transferred to PVDF membranes. The membrane was hybridized with the antibody of interest according to the manufacturer's instructions. […] For the densitometry analysis the films were scanned at 2,400 dpi and analyzed by the […]5500 program (1 D-Multi Line densitometry mode). […]

hES cells = test: Clonal survival of individualized hES cells at 250 cells per cm^2; type: cell-based, human; settings: laminin-521/E-Cadherin matrix
Protocol: hES cells were plated in mTeSR1 medium on different coatings at a density of 250 cells per cm^2 and monitored after 5 days in culture using an alkaline phosphatase staining kit.
Next, combinations of laminin-521 and E-Cadherin were tested to determine whether the combinations could sustain clonal survival of the cells. Fixed amounts of laminin-521 were used for the cell culture dish coating in combination with titrated E-Cadherin.
Additional tests were performed to test the effects of various modifications to the mTeSR1 medium. A mixture of E-Cadherin to laminin-521 in a ratio of about 1:10 w/w was used to coat the plates. […] Time-lapse photography of the cells confirmed that laminin-521/E-Cadherin coatings facilitated cell survival through proliferation of the single cells, not through the aggregation of different cells.

human ES cells [2] = test: Cell adhesion assay, 1 hour after plating on coated plates; type: cell-based
Protocol: as §1
Briefly, 96-well plates were coated by extracellular matrix proteins as described above and blocked by O3 medium containing bovine serum albumin. The ES cells were plated at cell density of 50,000 cells/cm^2 onto extracellular matrix-coated plates and left to adhere for 1 hour in a cell incubator. After that the plates were washed 3 times with the medium to remove the non-adherent cells, and then the adherent cells were fixed for 20 minutes by 5% glutaraldehyde, stained by 0.1% Crystal Violet. (Kebo Lab, Spanga, Sweden, http://www.kebolab.se). After one hour and 3 washes with water, Crystal Violet was extracted with 10% acetic acid and quantified by measuring optical density at 570 nm. All the experiments were performed in quadruplicate.

human ES and iPS cells = settings: human ES cells grown on laminin-511; cited from earlier work
mouse ES cells = settings: without LIF or feeder cells; cited from earlier work

With “human recombinant LN-111: human recombinant laminin of α1, β1 and γ1 chains from triple transfected HEK293 cells” the “survival / attachment of dissociated hES cells 24 hours (one day) after plating” value (shortened to “survival / attachment”) (human ES cells [1]) was “failed to survive”.
In the case of “LN-121: human recombinant laminin of α1, β2 and γ1 chains from triple transfected HEK293 cells”, the “survival / attachment” value (human ES cells [1]) is reported as “failed to survive”.
In the case of `COc1cccc(-c2cc(=O)c3ccccc3o2)c1N` [PD 98059], the “survival of hES cells 24 hours after plating on LN-521 with pathway inhibitor” value (human ES cells on LN-521) is reported as “did not affect the survival that severely” and the “efficacy of inhibitor treatment by western blot” value (Akt and MEK1) is reported as “confirmed”.
With albumin the “effect of 2× increase in albumin concentration in mTeSR1 on clonal survival” value (hES cells) was “significantly improved clonal survival”.
In the case of `C[C@@H](N)[C@H]1CC[C@H](C(=O)Nc2ccncc2)CC1` [Y-27632], the “attachment / survival of hES cells 24 hours after plating in presence of ROCK inhibitor” value (human ES cells [1]; O3 medium with Y-27632, Matrigel, LN-111, LN-511, LN-521 and mixture coatings) is reported as “remained attached on all 5 coatings; also recorded: survived on all surfaces” and the “cell shape 24 hours after plating on LN-521” value (human ES cells [1]; absence or presence of ROCK inhibitor) is reported as “spindle or crescent like shape”.
In the case of “LN-511: human recombinant laminin-511 coating”, the “survival / attachment” value (human ES cells [1]) is reported as “did so as single cells; also recorded: very few”, the “survival / attachment” value (human ES cells [1]; listed as human r-laminin-511) is reported as “at a less extent” and the “survival / attachment” value (human ES cells [1]; listed as laminin-511) is reported as “in most cases”. The “adhesion of human ES cells after 1 hour” value (human ES cells [2]; O3 medium without any additives, without Y-27632, FIG. 6) was “roughly the same”, the “spreading of the cells after one hour compared with Matrigel or LN-111” value (human ES cells [2]; dissociated hES cells, not shown) was “clearly better” and the “time hES cells maintain pluripotency and can generate teratomas in SCID mice” value (human ES and iPS cells) was “over 3 months”. The “time of self-renewal of mouse ES cells” value (mouse ES cells) was “over 5 months”.
With “LN-111: mouse laminin-111 (Invitrogen), indicated as LN-111 if not otherwise stated” the “survival / attachment” value (human ES cells [1]) was “did not survive; also recorded: almost no cells had survived” and the “survival / attachment” value (human ES cells [1]; listed as mouse laminin-111) was “almost no cells remained attached”.
